# Key:
# [1] = system: CAR-induced swelling and thermal hyperalgesia; experiment: Anti-hyperalgesic effect in animals (carrageenan injected into rat knee joint; swelling, Hargreaves test); format: in vivo; conditions: intra-articular administration 30 minutes before CAR, TAC 10 μg/joint
# Protocol: In order to induce an inflammation reaction, a carrageenan solution (CAR, 1%, 50 μl) was injected intra-articularly on one side into a rat knee joint. The uninjected side was used for control purposes. Six animals per group were used. The […] was determined by means of a micrometer screw (medial-lateral on the knee joint), and the thermal hyperalgesia was determined by means of a directed infrared light source by the Hargreaves method (Hargreaves et al., 1988) on the sole of the foot. Since the site of inflammation (knee joint) is different from the site of measurement (paw sole), use is made here of the term secondary thermal hyperalgesia, the mechanism of which is of importance for the discovery of effective analgesics.
# Experimental description of thermal hyperalgesia (Hargreaves test): the experimental animal is placed in a plastic chamber on a quartz sheet. Before testing, the experimental animal is firstly given about 5-15 minutes time to familiarise itself with the environment. […] Light reflected by the paw is recorded as long as the experimental animal sits still. Withdrawal of the paw interrupts this reflection, after which the infrared light source is switched off and the time from switching on to switching off is recorded. […]
# [2] = target: T1, His-tagged human recombinant DDR-2 kinase domain (His-TEV-DDR2 467-855 aa) (Homo sapiens, UniProt Q16832); experiment: Autophosphorylation assay for biochemical activity testing of DDR2 (HTRF)
# T1 construct: His-TEV-DDR2 467-855 aa
# T1 sequence (Q16832 467-855): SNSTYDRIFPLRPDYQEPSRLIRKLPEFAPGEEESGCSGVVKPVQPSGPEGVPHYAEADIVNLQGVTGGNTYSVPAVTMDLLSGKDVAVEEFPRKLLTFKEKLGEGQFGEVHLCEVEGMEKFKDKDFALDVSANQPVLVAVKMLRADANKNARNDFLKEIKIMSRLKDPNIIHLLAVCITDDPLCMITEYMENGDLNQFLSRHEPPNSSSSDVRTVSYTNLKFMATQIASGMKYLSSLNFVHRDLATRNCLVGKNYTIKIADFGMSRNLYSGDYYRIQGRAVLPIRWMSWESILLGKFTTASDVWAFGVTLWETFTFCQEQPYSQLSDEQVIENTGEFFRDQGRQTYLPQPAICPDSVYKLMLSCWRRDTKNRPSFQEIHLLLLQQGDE
# Outline: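 Phospho-tyrosine was detected by HTRF between XL665 anti-6His and cryptate anti-phosphotyrosine PT66 antibodies, using the emission ratio. Inhibition was referenced to the inhibitor-free reaction.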
# [3] = system: proMMP13 production by SW1353 cells; experiment: Production of MMP13 (proMMP13 ELISA) by SW1353 cells upon stimulation with collagen type II; format: cell-based; conditions: Homo sapiens, SW1353, 72 h, read-out: IC50 [pro-MMP13]
# Protocol: The binding of Collagen type II to the DDR2 receptor of the SW1353 cells initiate a signalling cascade resulting in the increase of MMP13 expression. MMP13 is released in the culture medium in its pro-form, the proMMP13 which can be measured with an ELISA.
# DDR2 inhibitors are evaluated for their ability to block this signalling cascade and therefore proMMP13 production upon collagen stimulation.
# SW1353 cells (ATCC, HTB-94), conserved in liquid nitrogen, are thawed and cultivated at 1.6.10^6 cells in a T75 in RPMI1640 supplemented with 2 mM Glutamin, 1 mM Na-Pyruvate, 10% FCS, at 37° C., 5% CO2 for three days. SW1353 cells are then harvested with trypsin/EDTA and resuspended in RPMI1640 supplemented with 2 mM Glutamin, 1 mM Na-Pyruvate, 25 mM HEPES and 0.5% FCS (assay medium) and inoculated in a 96 well plate at 30 000 cells/well in 100 μL of the assay medium and further incubated 24 hours at 37°, 5% CO2 to enable cell adhesion. For stimulation of the DDR2 receptor, 50 μL of a collagen type II solution 160 μg/mL (final concentration in the well is 40 μg/mL) will be added in each well as well as 50 μL of the different dilutions of the inhibitors (MSCs) from 0.003 μM to 10 μM (final concentration in the plate). Each condition is performed in four-plicates. After three additional days of culture, the supernatant will be harvested for proMMP13 measurement.
# The Different Controls Present on Each Plate are Composed of Assay Medium with: Positive control (with the reference compound): 40 μg/mL Collagen type II, 0.03 μM Dasatinib (reference compound) in 0.1% DMSO Negative control (no inhibition): 40 μg/mL Collagen type II and 0.1% DMSO Medium control (no stimulation): 0.005% Acetic acid and 0.1% DMSO All wells contains 0.1% DMSO and 0.005% acetic acid.
# The solutions needed are: • Collagen type II is diluted at 2 mg/mL in 0.25% acetic acid. This stock solution can be stored at 4° C. for a week and is diluted 1/12.5 in the assay medium (to obtain 160 μg/mL in 0.02% acetic acid) before being used in the assay. • MSCs from 0.012 to 40 μM in assay medium with 0.4% DMSO (they are then further diluted ¼ in the assay plate) • Dasatinib 0.12 μM in assay medium with 0.4% DMSO (it is then further diluted ¼ in the assay plate) • Acetic acid 0.02% in assay medium (control).
# The harvested supernatants are either directly used or stored at −20° C. until use. ProMMP13 is measured with a commercial ELISA kit, according the recommendation of the manufacturer (see Annex). Briefly, 50 μL of each samples are used undiluted and the standard curve is realised in the assay medium. At the end of the assay the ELISA plate is read on a Paradigm MTP-Reader (Beckman Coulter) at 540 (reference wavelength) and 450 nm. All the absorbance values obtained at 450 nm are corrected with the absorbance at 540 nm and a ‘Four Parameter Fit’ is used to establish the standard curve. From the standard curve the concentrations of proMMP13 in all the samples are calculated. All the calculations are realised by the Paradigm software.
# The data reported in the database are the % effect of the compounds at the two highest concentrations (10 and 3 μM) as well as the IC50.
# % effect at the two highest concentrations is calculated according to the formula: […]
# The IC50s are calculated with the software Graph Pad Prism (see tables in Example 1).
# [4] = target: T2, HEK293 transfected with human DDR2 (Homo sapiens, UniProt Q16832); experiment: Phospho-DDR2 cellular assay (collagen II induced DDR2 phosphorylation, ELISA); format: cell-based; conditions: cellular phospho-DDR2; read-out: IC50 [p-DDR2]
# T2 construct: expressed in transfected cells; host or cells: HEK293 (PLT460F_(DDR2)-P7-1)
# T2 sequence (Q16832 22-855): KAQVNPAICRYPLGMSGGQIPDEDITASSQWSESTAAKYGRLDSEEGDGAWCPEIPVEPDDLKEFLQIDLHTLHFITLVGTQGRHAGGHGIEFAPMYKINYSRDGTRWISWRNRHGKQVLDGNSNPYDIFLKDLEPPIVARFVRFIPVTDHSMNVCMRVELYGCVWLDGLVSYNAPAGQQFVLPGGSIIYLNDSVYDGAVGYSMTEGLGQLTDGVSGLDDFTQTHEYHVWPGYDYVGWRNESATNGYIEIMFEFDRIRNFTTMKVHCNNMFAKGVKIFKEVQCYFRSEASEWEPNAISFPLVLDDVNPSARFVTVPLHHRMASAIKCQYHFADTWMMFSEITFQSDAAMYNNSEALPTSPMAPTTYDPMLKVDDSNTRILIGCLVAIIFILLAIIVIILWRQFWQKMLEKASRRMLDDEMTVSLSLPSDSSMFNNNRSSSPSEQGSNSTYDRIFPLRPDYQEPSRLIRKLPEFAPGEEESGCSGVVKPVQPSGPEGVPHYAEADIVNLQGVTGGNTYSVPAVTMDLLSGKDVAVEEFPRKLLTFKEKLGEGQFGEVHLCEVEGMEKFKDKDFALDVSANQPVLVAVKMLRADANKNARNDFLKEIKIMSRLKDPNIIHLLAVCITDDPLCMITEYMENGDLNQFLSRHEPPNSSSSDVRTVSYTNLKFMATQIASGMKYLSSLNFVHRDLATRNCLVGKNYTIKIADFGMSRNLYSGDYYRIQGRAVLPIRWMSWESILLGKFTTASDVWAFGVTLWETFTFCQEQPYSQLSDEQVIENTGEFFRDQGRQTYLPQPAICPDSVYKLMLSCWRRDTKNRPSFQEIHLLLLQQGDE
# Outline: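 Cells seeded 48 h in 10% FBS, serum-starved 8 h, then given compound (5% DMSO) with 50 μg/ml chicken collagen II for 16 h at 37 °C. Lysates captured on anti-DDR2 antibody plates; phospho-DDR2 detected with HRP anti-phosphotyrosine antibody by chemiluminescence.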
# [5] = biochemical DDR2 autophosphorylation
Compound,"IC50 [2, 5] [nM]",IC50 [4] [nM],CAR-induced swelling [1],"IC50 ([2]; 4 nM DDR2 kinase domain, 150 μM ATP, 150 min at 22° C.) [nM]",IC50 [3] [nM]
"C[C@]12C=CC(=O)C=C1CC[C@H]1[C@@H]3C[C@@H](O)[C@](O)(C(=O)CO)[C@@]3(C)C[C@H](O)[C@@]12F [TAC, Triamcinolone]",,,capable of reducing the CAR-induced swelling,,
CNC(=O)c1cc(Oc2ccc(CNC(=O)Nc3cc(Cl)cnc3Cl)cc2)ccn1 [compound 8],,,,130,278
"CNC(=O)c1cc(Oc2ccc(CNC(=O)Nc3cccnc3Cl)cc2)ccn1 [compound 226, 4-{4-[3-(2-Chloro-pyridin-3-yl)-ureidomethyl]-phenoxy}-pyridine-2-carboxylic acid methylamide]",19000,11000,,,
"CNC(=O)c1cc(Oc2ccc(CNC(=O)Nc3ccc(OC)nc3)cc2)ccn1 [compound 227, 4-{4-[3-(6-Methoxy-pyridin-3-yl)-ureidomethyl]-phenoxy}-pyridine-2-carboxylic acid methylamide]",5500,6300,,,
"CNC(=O)c1cc(Oc2ccc(CNC(=O)Nc3cc(Cl)ccc3OC)cc2F)ccn1 [compound 232, 4-{4-[3-(5-Chloro-2-methoxy-phenyl)-ureidomethyl]-2-fluoro-phenoxy}-pyridine-2-carboxylic acid methylamide]",52,19,,,

# Now from value to compound, other results behind:
"IC50 [2, 5] [nM]",IC50 [4] [nM],Compound,CAR-induced swelling [1],"IC50 ([2]; 4 nM DDR2 kinase domain, 150 μM ATP, 150 min at 22° C.) [nM]",IC50 [3] [nM]
2000,1500,"CNC(=O)c1cc(Oc2ccc(CNC(=O)Nc3ccc(C)cn3)cc2)ccn1 [compound 210, 4-{4-[3-(5-Methyl-pyridin-2-yl)-ureidomethyl]-phenoxy}-pyridine-2-carboxylic acid methylamide]",,,
780,630,"CNC(=O)c1cc(Oc2ccc(CNC(=O)Nc3ccc(C)cn3)cc2C)ccn1 [compound 211, 4-{2-Methyl-4-[3-(5-methyl-pyridin-2-yl)-ureidomethyl]-phenoxy}-pyridine-2-carboxylic acid methylamide]",,,
570,380,"CNC(=O)c1cc(Oc2ccc(CNC(=O)Nc3cc(C)ccn3)cc2)ccn1 [compound 212, 4-{4-[3-(4-Methyl-pyridin-2-yl)-ureidomethyl]-phenoxy}-pyridine-2-carboxylic acid methylamide]",,,
400,205,"CNC(=O)c1cc(Oc2ccc(CNC(=O)Nc3cc(C)ccn3)cc2C)ccn1 [compound 213, 4-{2-Methyl-4-[3-(4-methyl-pyridin-2-yl)-ureidomethyl]-phenoxy}-pyridine-2-carboxylic acid methylamide]",,,
69,40,"CNCCOc1ccc(C)cc1NC(=O)NCc1ccc(Oc2ccnc(C(=O)NC)c2)c(C)c1 [compound 215, 4-(2-Methyl-4-{3-[5-methyl-2-(2-methylamino-ethoxy)-phenyl]-ureidomethyl}-phenoxy)-pyridine-2-carboxylic acid methylamide]",,,
